Reference: publication PMC6127270 (Frontiers in Pharmacology, 2018)
Read-outs that look alike come from different tables or passages of the source.

What was measured:
human MOR = target: T1, human MOR (Homo sapiens, UniProt P35372); test: [35S]GTPγS binding, CHO-hMOR membranes; format: biochemical; details: for [35S]GTPγS Binding MOR % stim.: relative to DAMGO
T1 construct: host or cells: CHO

human DOR = target: T2, human DOR (Homo sapiens, UniProt P41143); test: [35S]GTPγS binding, CHO-hDOR membranes; format: biochemical; details: for [35S]GTPγS Binding DOR % stim.: relative to DPDPE
T2 construct: host or cells: CHO

human KOR = target: T3, human KOR (Homo sapiens, UniProt P41145); test: biochemical; format: biochemical
T3 construct: host or cells: CHO

[1] = tested on: guinea-pig ileum (GPI) myenteric plexus-longitudinal muscle preparation; design: method as in Lattanzi et al., 2005; details: values marked c (footnote not given); ref Lattanzi et al., 2005; read-out: Bioassay IC50 GPI; cited from earlier work
[2] = tested on: mouse vas deferens (MVD) preparation; design: method as in Lattanzi et al., 2005; details: values marked c (footnote not given); ref Lattanzi et al., 2005; read-out: Bioassay IC50 MVD; cited from earlier work
CD-1 mice [3] = details: s.c., hot-plate, values marked c (footnote not given), ref Lattanzi et al., 2005; cited from earlier work
[4] = Charcoal meal test (gastrointestinal transit); details: male, CD-1, mouse, in vivo, sc
CD-1 mice [5] = test: Charcoal meal test (gastrointestinal transit); details: mice; for Inhibition of gastrointestinal transit at highest tested dose: highest doses morphine 8000, 14-OMO 90, POMO […]
[6] = tested on: guinea-pig ileum (GPI) myenteric plexus-longitudinal muscle preparation; details: for IC50: read-out: Bioassay IC50 GPI, inhibition of electrically evoked twitch
[7] = tested on: mouse vas deferens (MVD) preparation; details: for IC50: read-out: Bioassay IC50 MVD, inhibition of electrically evoked twitch
MOR = target: T4, MOR (Rattus norvegicus, UniProt P33535); test: Competition binding, [3H]DAMGO, rat brain membranes
T4 construct: Membranes were prepared from Sprague–Dawley rat brains or guinea-pig brains; from tissue; host or cells: Sprague-Dawley rat brain

DOR = target: T5, DOR (Rattus norvegicus, UniProt P33533); test: Competition binding, [3H][Ile5,6]deltorphin II, rat brain membranes
T5 construct: Membranes were prepared from Sprague–Dawley rat brains or guinea-pig brains; from tissue; host or cells: Sprague-Dawley rat brain

KOR = target: T6, KOR (Cavia porcellus, UniProt P41144); test: Competition binding, [3H]U69,593, guinea-pig brain membranes
T6 construct: Membranes were prepared from Sprague–Dawley rat brains or guinea-pig brains; from tissue; host or cells: guinea-pig brain

CD-1 mice [8] = test: Hot-plate assay (acute thermal nociception); format: in vivo, mouse
[9] = tested on: guinea-pig ileum (GPI) myenteric plexus-longitudinal muscle preparation; test: tissue or blood; details: Cavia porcellus, read-out: Bioassay IC50 GPI
[10] = tested on: mouse vas deferens (MVD) preparation; test: tissue or blood; details: read-out: Bioassay IC50 MVD

In the case of CO[C@@]12CCC(=O)[C@@H]3Oc4c(O)ccc5c4[C@@]31CCN(C)[C@@H]2C5 [14-OMO, 14-O-methyloxymorphone, reference compound], the EC50 (human MOR) is reported as 1.62 ± 0.48 nM, the “[35S]GTPγS Binding MOR % stim.” value (human MOR) is reported as 97 ± 6% and the EC50 (human DOR) is reported as 43.8 ± 11.7 nM. The “[35S]GTPγS Binding DOR % stim.” value (human DOR) was 106 ± 1%, the EC50 (human KOR) was 144 ± 32 nM and the “[35S]GTPγS Binding KOR % stim.” value (human KOR) was 65 ± 7%. For the same compound, the IC50 [1] was 2 ± 0.3 nM, the IC50 [2] was 30.5 ± 5.5 nM and the “Antinociceptive activity AD50 (95% CI)” value (CD-1 mice [3]) was 53 (48–58)^c μg/kg. For the same compound, the ED50 at 30 min [4] was 0.037 µmol/kg and the “Inhibition of gastrointestinal transit at highest tested dose” value (“Inhibition … at highest tested dose” below) (CD-1 mice [5]; charcoal test, s.c.) was 90%.

In the case of C[C@@H](NC(=O)[C@@H](N)Cc1ccc(O)cc1)C(=O)NCC(=O)N(C)[C@@H](Cc1ccccc1)C(=O)NCCO [DAMGO, [D-Ala^2,N-Me-Phe^4,Gly-ol^5]enkephalin, reference compound], the “[35S]GTPγS Binding MOR % stim.” value (human MOR) is reported as 100%.

CC(C)[C@H](NC(=O)[C@H](CC(=O)O)NC(=O)[C@H](Cc1ccccc1)NC(=O)[C@@H](C)NC(=O)[C@@H](N)Cc1ccc(O)cc1)C(=O)N[C@H](C(=O)NCC(N)=O)C(C)C [Deltorphin I, deltorphin I, reference compound] showed an IC50 [6] of 1240 ± 132 nM and an IC50 [7] of 0.19 ± 0.03 nM.

Compound C[C@@H](NC(=O)[C@@H](N)Cc1ccc(O)cc1)C(=O)N[C@@H](Cc1ccccc1)C(=O)NCC(=O)N[C@@H](Cc1ccc(O)cc1)C(=O)N1CCC[C@H]1C(=O)N[C@@H](CO)C(N)=O [Dermorphin, reference compound] has an IC50 [6] of 1.3 ± 0.27 nM and an IC50 [7] of 18 ± 0.31 nM.

In the case of CN1CC[C@]23c4c5ccc(O)c4O[C@H]2[C@@H](O)C=C[C@H]3[C@H]1C5 [Morphine, Morphine hydrocloride, reference compound], the “Antinociceptive activity AD50 (95% CI)” value (CD-1 mice [3]) is given as 6690 (4468–9348)^c μg/kg, the ED50 at 30 min [4] is given as 3.8 µmol/kg and the “Inhibition … at highest tested dose” value (CD-1 mice [5]; charcoal test, s.c.) is given as “completely abolishing transit”.

For CN1CC[C@]23c4c5ccc(O)c4O[C@H]2C(=O)CC[C@@]3(OCCCc2ccccc2)[C@H]1C5 [POMO, 14-O-phenylpropyloxymorphone], the Ki (MOR) was 0.073 ± 0.007 nM, the “Selectivity DOR/MOR” value (MOR; ratio of Ki values) was 1.8 and the “Selectivity KOR/MOR” value (MOR; ratio of Ki values) was 4.1. The Ki (DOR) was 0.13 ± 0.02 nM, the Ki (KOR) was 0.3 ± 0.01 nM and the EC50 (human MOR) was 0.082 ± 0.017 nM. The “Agonist efficacy at MOR” value (human MOR; [35S]GTPγS binding) was “full efficacy”, the “Fold increase in potency (EC50) than 14-OMO at MOR” value (human MOR; [35S]GTPγS binding) was 20 fold and the “[35S]GTPγS Binding MOR % stim.” value (human MOR) was 100 ± 8%. For the same compound, the EC50 (human DOR) was 0.28 ± 0.14 nM, the “Agonist efficacy at DOR” value (human DOR; [35S]GTPγS binding) was “full efficacy” and the “Fold increase in potency (EC50) than 14-OMO at DOR” value (human DOR; [35S]GTPγS binding) was 151 fold. For the same compound, the “[35S]GTPγS Binding DOR % stim.” value (human DOR) was 91 ± 8%, the “Agonist efficacy at KOR” value (human KOR) was “partial agonism” and the EC50 (human KOR) was 0.38 ± 0.13 nM. For the same compound, the “Fold increase in potency (EC50) than 14-OMO at KOR” value (human KOR) was 411 fold, the “[35S]GTPγS Binding KOR % stim.” value (human KOR) was 39 ± 5% and the “Antagonism of antinociception by naloxone” value (CD-1 mice [8]; POMO 2 nmol/kg s.c., 20 min, naloxone 1 mg/kg s.c., -10 min) was “significantly antagonized”. The “Antagonism of antinociception by naltrindole” value (CD-1 mice [8]; POMO 2 nmol/kg s.c., 20 min, naltrindole 3 mg/kg s.c., -10 min) was “did not antagonize”, the “Antagonism of antinociception by nor-BNI” value (CD-1 mice [8]; POMO 2 nmol/kg s.c., 20 min, nor-BNI 20 mg/kg s.c., -24 h) was “did not antagonize” and the “Fold increased antinociceptive potency than 14-OMO” value (CD-1 mice [8]; hot-plate, mice, s.c.) was “over 70 fold”. The “Fold increased antinociceptive potency than morphine” value (CD-1 mice [8]; hot-plate, mice, s.c.) was greater than 9000 fold, the “Time of peak antinociceptive response” value (CD-1 mice [8]; hot-plate, mice, s.c.) was 20 min and the “Fold increase in antinociceptive potency than oxymorphone” value (CD-1 mice [8]; hot-plate, mice, s.c., oxymorphone value from Dumitrascuta et al., 2017) was greater than 1400 fold. For the same compound, the AD50 hot-plate test (CD-1 mice [8]; mice, s.c.) was 0.7 nmol/kg, the “Antinociceptive activity AD50 (95% CI)” value (CD-1 mice [8]; mice, s.c., hot-plate, at peak of action) was 0.70 (0.63–0.77) μg/kg and the “Fold more potent than morphine as agonist in GPI” value [6] was “over 250 fold”. For the same compound, the “Fold more potent than 14-OMO as agonist in MVD” value [7] was 1000 fold, the “Fold more potent than morphine as agonist in MVD” value [7] was > 50,000 fold and the IC50 [9] was 1.2 ± 0.21 nM. For the same compound, the IC50 [10] was 0.03 ± 0.0013 nM, the ED50 at 30 min [4] was 0.0017 µmol/kg and the “Inhibition of gastrointestinal transit compared with 14-OMO and morphine” value (CD-1 mice [5]; charcoal test) was “fourfold less inhibition”. For the same compound, the “Inhibition … at highest tested dose” value (CD-1 mice [5]; charcoal test, s.c.) was 50% and the “Ratio ED50(constipation) vs. AD50(antinociception)” value (CD-1 mice [5]; s.c.) was 2.43.
